Laboratory results as given in publication PMC8694143 (Microbiology Spectrum, 2021).
Values after ≈ are worked out from the molar mass of the structure shown. “Also recorded” adds a separate entry of the source. Non-standard residues stand in square brackets, D forms with d. Residues, ends and D or L forms follow the SMILES beside them. No end group written: not given here.

Tests used:
[1] = Circular dichroism spectroscopy; format: physicochemical; settings: CD, 50% TFE (vol/vol), peptide 0.2 mg/mL, room temperature
Protocol: Peptides were dissolved in ultrapure water or 50% TFE (vol/vol) at a concentration of 0.2 mg/mL for spectroscopy. Spectra of samples in a 1 mm pathlength quartz cuvette were recorded from 180 to 260 nm at 0.5 nm steps using an Applied Photophysics Chirascan Plus CD spectrophotometer operating at room temperature.

S. aureus ATCC 29213 [2] = test: MIC determination in broth; format: cell-based, Staphylococcus aureus; settings: STIP3 variants, highest conc. tested 100 μg/mL; cation-adjusted MH broth, ~10^5 CFU/mL, 2-fold dilution series, 37°C, 16 h
Protocol: (§1) M. luteus ATCC 4698, S. aureus ATCC 29213, a panel of 7 MRSA (ATCC MP-2) strains, which includes ATCC BAA-41, BAA-42, BAA-44, BAA-1683, BAA-2094, BAA-2313, and 33592, and a series of additional bacterial isolates from human and veterinary cases were used in this study (Table S6). Bacterial strains were routinely grown in lysogeny broth (LB: 10 g/L tryptone, 5 g/L yeast extract, 10 g/L NaCl) at 30°C (M. luteus) or 37°C (Staphylococcus spp.) prior to use in specific experiments described below.
(§2) The MICs were measured for bioactive peptides identified from the initial screen. Cation-adjusted Mueller-Hinton (MH) broth was used as the growth medium for MIC determination experiments. Bacterial cultures were diluted to an OD of 5 × 10^−4 (∼10^5 CFU/mL) in 200 μL MH broth mixed with peptides in a 2-fold dilution series arrayed in 96-well plates. Plates were incubated without shaking at 30 or 37°C depending on the organism.

MRSA ATCC BAA-1683 = test: MIC determination in broth; format: cell-based, Staphylococcus aureus; settings: STIP3 variants, highest conc. tested 100 μg/mL; cation-adjusted MH broth, ~10^5 CFU/mL, 2-fold dilution series, 37°C, 16 h
Protocol: as §1, §2

MRSA ATCC BAA-42 = test: MIC determination in broth; format: cell-based, Staphylococcus aureus; settings: STIP3 variants, highest conc. tested 100 μg/mL; cation-adjusted MH broth, ~10^5 CFU/mL, 2-fold dilution series, 37°C, 16 h
Protocol: as §1, §2

MRSA ATCC BAA-44 = test: MIC determination in broth; format: cell-based, Staphylococcus aureus; settings: STIP3 variants, highest conc. tested 100 μg/mL; cation-adjusted MH broth, ~10^5 CFU/mL, 2-fold dilution series, 37°C, 16 h
Protocol: as §1, §2

MRSA ATCC BAA-2094 = test: MIC determination in broth; format: cell-based, Staphylococcus aureus; settings: STIP3 variants, highest conc. tested 100 μg/mL; cation-adjusted MH broth, ~10^5 CFU/mL, 2-fold dilution series, 37°C, 16 h
Protocol: as §1, §2

MRSA ATCC BAA-41 = test: MIC determination in broth; format: cell-based, Staphylococcus aureus; settings: STIP3 variants, highest conc. tested 100 μg/mL; cation-adjusted MH broth, ~10^5 CFU/mL, 2-fold dilution series, 37°C, 16 h
Protocol: as §1, §2

MRSA ATCC BAA-2313 = test: MIC determination in broth; format: cell-based, Staphylococcus aureus; settings: STIP3 variants, highest conc. tested 100 μg/mL; cation-adjusted MH broth, ~10^5 CFU/mL, 2-fold dilution series, 37°C, 16 h
Protocol: as §1, §2

MRSA ATCC 33592 = test: MIC determination in broth; format: cell-based, Staphylococcus aureus; settings: for MIC (μg/mL) for MRSA ATCC 33592: Table 1 and text; for MIC (μg/mL) for MRSA ATCC 33592 / MIC, S. aureus ATCC 33592 (SCCmec III): cation-adjusted MH broth, ~10^5 CFU/mL, 37°C, 16 h; for MIC, S. aureus ATCC 33592 (SCCmec III): Table S5, STIP3 variants, highest conc. tested 100 μg/mL, 2-fold dilution series
Protocol: as §1, §2

S. aureus = test: MIC of STIP3-1 alanine variants in liquid broth; format: cell-based, Staphylococcus aureus; settings: for Activity against S. aureus in nutrient broth: at 200 μg/mL; for MIC, S. aureus (alanine substituted STIP3-1, liquid broth): Table S4, maximum concentration tested 200 μg/mL, strain not given
Protocol: The MICs were measured for bioactive peptides identified from the initial screen. […] […] Plates were incubated without shaking at 30 or 37°C depending on the organism.

M. luteus ATCC 4698 = test: MIC determination in broth; format: cell-based, Micrococcus luteus; settings: cation-adjusted MH broth, ~10^5 CFU/mL, 30°C, 48 h
Protocol: as §1, §2

SspA [3] = test: SspA protease resuspended at 2 mg/mL in 100 mM HEPES (pH 7.8); settings: 37°C, up to 5 h
SspA [4] = test: SspA protease in 100 mM HEPES (pH 7.8); settings: Staphylococcus aureus (staphylococcal secreted protease), 37°C, up to 5 h
S. aureus ATCC 29213 [5] = test: Spot-on-lawn assay; format: cell-based, Staphylococcus aureus; settings: 50 μg peptide (about 45 μg of SspA reaction mixture) spotted on inoculated soft agar, 37°C, 16 to 48 h
Protocol: Peptides (≥70% purity) were resuspended in sterile double distilled water (ddH2O) at a concentration of 10 mg/mL (gross weight), and M. luteus and S. aureus ATCC 29213 were used as indicator strains. To prepare test organisms, the optical density (OD) of overnight cultures was measured and the organisms were diluted to an initial OD of 0.05 (S. aureus) or 0.1 (M. luteus) in soft nutrient agar (0.4% wt/vol) at 50°C. Next, 3 mL of soft agar containing a test organism was overlaid on solid LB agar (1.5% wt/vol). A total of 50 μg of each peptide was spotted on the inoculated surface and plates were incubated for 16 to 48 h at 37 or 30°C.
SspA protease was resuspended at 2 mg/mL in 100 mM HEPES (pH 7.8). Peptide samples (45 μL at 10 mg/mL) were mixed with SspA (5 μL at 2 mg/mL) and incubated at 37°C for a total of 5 h. The antimicrobial activities of the reaction mixtures were assayed by spotting 5 μL (∼45 μg) of each on either M. luteus or S. aureus test organisms as described above. Additional samples were flash frozen in liquid nitrogen and stored at −80°C prior to high-pressure liquid chromatography-mass spectrometry (HPLC/MS) analysis.

Compound: CC[C@@H](C)[C@@H](NC(=O)[C@@H](Cc1c[nH]c2ccccc12)NC(=O)[C@@H](CCCCN)NC(=O)[C@H](NC(=O)[C@@H](CC(C)C)NC(=O)CNC(=O)CNC(=O)[C@H](NC(=O)[C@H](N)[C@H](C)O)C(C)C)C(C)C)C(=O)N[C@H](CC(C)C)C(=O)N[C@H](CCCCN)C(=O)N[C@@H](C(=O)N[C@@H](C(=O)N[C@H](CCCCN)C(=O)N[C@H](CCCCN)C(=O)N[C@H](Cc1ccccc1)C(=O)N[C@H](C)C(N)=O)C(C)C)[C@H](C)O [D-STIP3-29] (H-[dT][dV]GG[dL][dV][dK][dW][dI][dL][dK][dT][dV][dK][dK][dF][dA]-NH2; N-terminus assumed)
- α-Helical content (%) [1]: 47%
- MIC, S. aureus ATCC 29213 (S. aureus ATCC 29213 [2]): 6.25 µg/mL (≈ 3.31 µM)
- MIC, S. aureus ATCC BAA 1683 (SCCmec IV) (MRSA ATCC BAA-1683): 6.25 µg/mL (≈ 3.31 µM)
- MIC, S. aureus ATCC BAA 42 (SCCmec VI) (MRSA ATCC BAA-42): 6.25 µg/mL (≈ 3.31 µM)
- MIC, S. aureus ATCC BAA 44 (SCCmec I) (MRSA ATCC BAA-44): 12.5 µg/mL (≈ 6.62 µM)
- MIC, S. aureus ATCC BAA 2094 (SCCmec V) (MRSA ATCC BAA-2094): 6.25 µg/mL (≈ 3.31 µM)
- MIC, S. aureus ATCC BAA 41 (SCCmec II) (MRSA ATCC BAA-41): 6.25 µg/mL (≈ 3.31 µM)
- MIC, S. aureus ATCC BAA 2313 (SCCmec XI) (MRSA ATCC BAA-2313): 6.25 µg/mL (≈ 3.31 µM)
- MIC (μg/mL) for MRSA ATCC 33592 (MRSA ATCC 33592): 6.25 µg/mL
- MIC, S. aureus ATCC 33592 (SCCmec III) (MRSA ATCC 33592): 6.25 µg/mL (≈ 3.31 µM)

Compound: CC[C@H](C)[C@H](NC(=O)[C@H](Cc1c[nH]c2ccccc12)NC(=O)[C@@H](CCCCN)NC(=O)[C@@H](NC(=O)[C@H](CC(C)C)NC(=O)CNC(=O)CNC(=O)[C@@H](NC(=O)[C@@H](N)[C@@H](C)O)C(C)C)C(C)C)C(=O)N[C@@H](CC(C)C)C(=O)N[C@H](CCCCN)C(=O)N[C@H](C(=O)N[C@H](C(=O)N[C@@H](CCCCN)C(=O)N[C@H](CCCCN)C(=O)N[C@@H](Cc1ccccc1)C(=O)N[C@@H](C)C(N)=O)C(C)C)[C@@H](C)O [STIP3-29-D3] (H-TVGGLV[dK]WIL[dK]TVK[dK]FA-NH2; N-terminus assumed)
- α-Helical content (%) [1]: 32%
- MIC, S. aureus ATCC 29213 (S. aureus ATCC 29213 [2]): > (The > symbol indicates that no inhibition was observed at 100 μg/mL for the STIP3 variants)
- Increase of the MIC relative to STIP3-29 (MRSA ATCC 33592; D-Lys substituted variants): inactivation
- MIC (μg/mL) for MRSA ATCC 33592 (MRSA ATCC 33592): >100 µg/mL
- MIC, S. aureus ATCC 33592 (SCCmec III) (MRSA ATCC 33592): > (The > symbol indicates that no inhibition was observed at 100 μg/mL for the STIP3 variants)

Compound: AVGGLVKWILDTVKKFA [T1A]
- Activity against S. aureus in nutrient broth (S. aureus): maintained activity
- MIC, M. luteus (M. luteus ATCC 4698): 12.5 µg/mL

Compound: IIGTINDLIKWIADTVEKYKK
- cleaved bond (SspA [3]): D-L and D-T
- fragment found (SspA [3]): KYKK and LIKWIADTVE
- fragment found (SspA [4]): IIGTIND; also recorded: LIKWIAD

Compound: IISTIGDLIKWIIDTVKKFKK
- cleaved bond (SspA [3]): D-T
- fragment found (SspA [4]): IISTIGDLIKWIID; also recorded: TVKKFKK

Compound: IISTIVEFVKLIAETIAKFMK
- cleaved bond (SspA [3]): E-T and E-F
- fragment found (SspA [4]): IISTIVE; also recorded: FVKLIAETIAKFMK; also recorded: TIAKFMK

Compound: IVETVGGLVKWILDTVKKFA
- cleaved bond (SspA [3]): D-T
- fragment found (SspA [3]): IVE and TVGGLVKWILDTVKKFA and TVGGLVKWILD
- fragment found (SspA [4]): TVKKFA

Compound: TVAGLVKWILDTVKKFA [G3A]
- Inhibition of S. aureus growth, spot-on-lawn (S. aureus ATCC 29213 [5]): inhibition observed on an agar surface
- MIC, M. luteus (M. luteus ATCC 4698): 50 µg/mL

Compound: TVGALVKWILDTVKKFA [G4A]
- Inhibition of S. aureus growth, spot-on-lawn (S. aureus ATCC 29213 [5]): inhibition observed on an agar surface
- MIC, M. luteus (M. luteus ATCC 4698): 12.5 µg/mL

Compound: TVGGLVKWILATVKKFA [STIP3-2]
- MIC, S. aureus (alanine substituted STIP3-1, liquid broth) (S. aureus): 100 µg/mL
- Activity against S. aureus in nutrient broth (S. aureus): maintained activity
- MIC, S. aureus ATCC 29213 (S. aureus ATCC 29213 [2]): 100 µg/mL
- MIC, S. aureus ATCC BAA 1683 (SCCmec IV) (MRSA ATCC BAA-1683): 50 µg/mL
- MIC, S. aureus ATCC BAA 42 (SCCmec VI) (MRSA ATCC BAA-42): 50 µg/mL
- MIC, S. aureus ATCC BAA 44 (SCCmec I) (MRSA ATCC BAA-44): 100 µg/mL
- MIC, S. aureus ATCC BAA 2094 (SCCmec V) (MRSA ATCC BAA-2094): 50 µg/mL
- MIC, S. aureus ATCC BAA 41 (SCCmec II) (MRSA ATCC BAA-41): 100 µg/mL
- MIC, S. aureus ATCC BAA 2313 (SCCmec XI) (MRSA ATCC BAA-2313): 50 µg/mL
- MIC, S. aureus ATCC 33592 (SCCmec III) (MRSA ATCC 33592): 50 µg/mL
- MIC, M. luteus (M. luteus ATCC 4698): 3.13 µg/mL

Compound: TVGGLVKWILDAVKKFA [T12A]
- MIC, S. aureus (alanine substituted STIP3-1, liquid broth) (S. aureus): 100 µg/mL
- Activity against S. aureus in nutrient broth (S. aureus): maintained activity
- MIC, M. luteus (M. luteus ATCC 4698): 12.5 µg/mL

Compound: TVGGLVKWILDTAKKFA [V13A]
- Activity against S. aureus in nutrient broth (S. aureus): maintained activity
- MIC, M. luteus (M. luteus ATCC 4698): 50 µg/mL

Compound: TVGGLVKWILDTVAKFA [K14A]
- Inhibition of S. aureus growth, spot-on-lawn (S. aureus ATCC 29213 [5]): inhibition observed on an agar surface
- MIC, M. luteus (M. luteus ATCC 4698): 12.5 µg/mL

Compound: TVGGLVKWILDTVKAFA [K15A]
- Inhibition of S. aureus growth, spot-on-lawn (S. aureus ATCC 29213 [5]): inhibition observed on an agar surface
- MIC, M. luteus (M. luteus ATCC 4698): 25 µg/mL

Compound: TVGGLVKWILDTVKKFA
- cleaved bond (SspA [3]): Asp11-T12
- fragment found (SspA [4]): TVGGLVKWILD; also recorded: TVKKFA
